In data set [1] the test system is clinical drug-induced liver injury. The settings on record: clinical DILI severity category 1 to 5; cited from earlier work.
Data set [2] relates to human Liver-Chip (hepatocyte layer). Kind of data set: Liver-Chip immunofluorescence imaging (caspase 3/7, TMRM, AdipoRed/LipidTOX). The format is cell-based. The settings on record: for Immunofluorescence staining result in words: caspase 3/7 (apoptosis) or TMRM (mitotoxicity), 7 days. On the procedure:
Chips were detached from pods and washed once with PBS. […] Afterwards, chips were washed with PBS and stored at 4 °C until staining. Following fixation, chips corresponding to low, medium, and high concentrations from each group were cut in half with a razor blade perpendicular to the co-culture channels. One half was used in the following staining protocol, while the other half was stored for future staining. All stains and washes utilized the bubble method, in which a small amount of air is flowed through the channel prior to bulk wash media to prevent a liquid-liquid dilution of the staining solution. […] Following 15 minutes of incubation at room temperature, each channel was washed with 200 µL of PBS (alternating channels, 2× for top and 3× for bottom). As an alternative lipid accumulation marker, 100 µL of HCS LipidTOX Deep Red (ThermoFisher, H34477) was diluted 1:1000 v/v in PBS with NucBlue counterstain and added to the top channel. After a 30 min incubation at room temperature, the chips were again allowed to reach room temperature before the channels were alternatively washed with 200 µL of PBS, the bottom channel undergoing three washes and the top channel undergoing two. Chips were then imaged using the Opera Phenix. Following lipid and DAPI staining and imaging, chips were stained with a […] (MRP2) antibody to visualize the bile canalicular structures characteristic of healthy Liver-Chips. […] Then, each channel was washed with 200 µL of PBS (alternating channels, 2× for top and 3× for bottom). […] Next, primary antibody Mouse anti-MRP2 (Abcam, ab3373) was prepared 1:100 in the original blocking buffer, diluted 1:4 in PBS. 100 µL of solution was added to each channel, and chips were stored overnight at 4 °C. The following day, each channel was washed with 200 µL of PBS (alternating channels, 2× for top and 3× for bottom). […] 100 µL of solution was added to each channel and chips incubated at room temperature, protected from light, for two hours. Then, each channel was washed with 200 µL of PBS (alternating channels, 2× for top and 3× for bottom). Chips were imaged immediately or stored at 4 °C until ready for imaging on the Opera Phenix. Chip replicates designated for live cell imaging were washed with PBS utilizing the bubble method. Chips were then cut in half perpendicular to the co-culture channels. […] The bottom chips halves were stained with NucBlue (Thermo) to visualize nuclei and Tetramethylrhodamine, methyl ester (TMRM) (ThermoFisher, I34361) to visualize active mitochondria. This staining panel was prepared in PBS with 5% FBS, with NucBlue at 2 drops per mL and TMRM at a 1:1000 ratio in original blocking buffer, diluted 1:4 in PBS. Chips were incubated in the dark at 37 °C for 30 min, and then each channel was washed with 200 µL of PBS (alternating channels, 2× for top and 3× for bottom). The chips were kept at 37 °C, protected from light, until ready for imaging with the Opera Phenix. Fluorescent confocal image acquisition was performed using the Opera Phenix High-Content Screening System and Harmony 4.9 Imaging and Analysis Software (PerkinElmer). Before acquisition, the Phenix internal environment was set to 37 °C and 5% CO2. […] Whole chips were placed directly into each slot, while top and bottom half chips were matched and combined in one chip slot. Chips were aligned flush with the adapter and one another. Any bubbles identified from visual inspection were washed out with PBS. Once ready, the stained chips were covered with transparent plate film to seal channel ports and loaded into the Phenix. […] Z-stacks were generated with 3.6 µm between slices for 28–32 planes so that the epithelium was located around the center of the stack. […] Raw images from fixed and live imaging were exported in TIFF format from the Harmony software. Using scripts written for FIJI (ImageJ), TIFFs across three color channels and multiple z-stacks were compiled into composite images for each field of view in each chip. […]

Data set [3] has as its system human Liver-Chip (primary human hepatocytes). Put plainly: Liver-Chip alanine transaminase (ALT) release in top channel effluent (ELISA). It counts as cell-based. From the text: Cycles 1 to 4 tested 6–8 concentrations in duplicate for each of 10–13 drugs. To determine which sampling strategy was optimal for cycles 1 to 4 (16 doses × 1 replicate, 8 × 2, 5 × 3, or 4 × 4), we generated three different “dose-response” synthetic datasets, each distorted by different noise levels (low, medium, or high). For each of these datasets, we performed curve-fitting analyses and calculated the Root Mean Square Error between the “true” and estimated IC50 parameter. […] Some drugs were also repeated across cycles (on different donors or at different concentrations) to ensure experimental robustness. However, to replicate a more typical study design likely to be carried out by scientists in the pharmaceutical industry, we created cycle 5 with 6 drugs, where each was tested in 4 concentrations in triplicate. For each cycle, chips were dosed with drug over 8 days (referred to as Day 0 through Day 7).
The drug dosing concentrations were determined from the unbound human Cmax of each drug. First, the expected fraction of drug unbound in media with 2% FBS was extrapolated from plasma binding data for each drug. Dosing concentrations were then back calculated such that the unbound fraction in media would reflect relevant multiples of unbound human Cmax (Supplementary Data 1).
On the first dosing day (Day 0), all chips were imaged using the ECHO microscope. Five hundred microliters of effluent was collected from all four reservoirs of the pod and placed in a labeled 96-well plate. After collection, all the remaining media was carefully aspirated before dosing with 3.8 mL of corresponding dosing solution. Dosing occurred on study days 0, 2, and 4 for chips flowing at 30 µL/h, and on days 0, 1, 2, 3, 4, 5, and 6 for chips flowing at 150 µL/h. Effluent collection occurred on days 1, 3, and 7.
Top channel outlet effluents were analyzed to quantify albumin and alanine transaminase (ALT) levels on days 1, 3, and 7 using sandwich ELISA kits (Abcam, Albumin ab179887, ALT ab234578) according to vendor-provided protocols. Frozen (−80 °C) effluent samples were thawed overnight at 4 °C prior to assay. The Hamilton Vantage liquid handling platform was used to manage effluent dilutions (1:500 for albumin, neat for ALT), preparation of standard curves, and addition of antibody cocktail. Absorbance at 450 nm was measured using the SynergyNeo Microplate Reader (BioTek).
(In general: An ELISA detects its analyte on a solid surface through an enzyme-linked reagent.)

The conditions of data set [4]: cited from earlier work.
For data set [5], the system named is 3D spheroid cultures of primary human hepatocytes. The settings on record: cited from earlier work; for Spheroid false negative: Yes/No, also No for drugs not tested in spheroid; for Spheroid MOS: 3D hepatic spheroids, previously published data.
Data set [6] has as its system human Liver-Chip. Kind of data set: Liver-Chip DILI prediction: minimum toxic concentration and margin of safety (MOS)-like figure.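 For Chip MOS both donors: Toxic concentration is the lowest across albumin IC50 and ALT and morphology endpoints.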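 For Chip MOS donor 1: Toxic concentration is the lowest across albumin IC50 and ALT and morphology endpoints.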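 For Chip MOS donor 2: Toxic concentration is the lowest across albumin IC50 and ALT and morphology endpoints.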 The settings on record: for Chip MOS donor 1 / Chip MOS both donors / Chip MOS donor 2: free IC50 concentration in the assay divided by total concentration of drug in human plasma at Cmax; for Liver-Chip toxicity determination, MOS-like figure against threshold value of 50: not corrected for protein binding, donors one and two. The text has this: Because the fundamental principles of drug action dictate that free (unbound) drug concentrations drive drug effects, we explored an alternative methodology for calculating the MOS-like values by accounting for protein binding using a previously reported approach. Accordingly, we reanalyzed the findings for the 27 drugs in our study by accounting for protein binding.

[7] abbreviates: expanded drug list, lowest concentration causing an increase in ALT release, donor 1.
[8] abbreviates: day 7 post-drug administration, hepatocyte layer, top channel.
[9] abbreviates: expanded drug list, lowest concentration causing an increase in ALT release, donor 2.

The values that follow come from PMC9727064, “Performance assessment and economic analysis of a human Liver-Chip for predictive toxicology” (Communications Medicine, 2022).

Like-named read-outs stand apart in the source and are kept apart here.

Take `C=C[C@@H]1C[C@]1(NC(=O)[C@@H]1C[C@@H](Oc2ncc(OC)c3ccc(Cl)cc23)CN1C(=O)[C@@H](NC(=O)OC(C)(C)C)C(C)(C)C)C(=O)NS(=O)(=O)C1CC1` [Asunaprevir]: the “Garside DILI rank” value in data set [1] is listed as 2. Also, in data set [2], the “Immunofluorescence staining result in words” value is “apoptosis-mediated cell death”. The “IF imaging Donor 1” value in data set [2] (expanded drug list) is “Apoptosis”. Further, the “ALT change in words” value in data set [3] (Liver-Chip effluent) is reported as “no elevation of ALT”. Also, in data set [3] (setting [7]), the “ALT Donor 1” value was > 1000 unbound human Cmax multiplier. Further, the “Expected Fraction Unbound in Plasma” value in data set [4] (plasma, ref Lau, S.W.J. (65)) was 0.012. Also, the Spheroid false negative entry in data set [5] was “No”. The “Chip MOS donor 1” value in data set [6] is 4.

Consider `CC(C(=O)O)c1ccc2oc(-c3ccc(Cl)cc3)nc2c1` (centres unmarked) [Benoxaprofen], for which the “Garside DILI rank” value in data set [1] is 1. In data set [2] (setting [8]), the “Immunofluorescent findings, donor two (Supplementary Figure 3)” value (“Immunofluorescent findings, donor two” for short) is recorded as “Apoptosis”. Also, in data set [2] (expanded drug list), the “IF imaging Donor 1” value is given as “Apoptosis” and the “IF imaging Donor 2” value is reported as “Apoptosis”. In data set [3] (setting [7]), the “ALT Donor 1” value is > 100 unbound human Cmax multiplier. The “ALT Donor 2” value in data set [3] (setting [9]) was 100 unbound human Cmax multiplier. For the same compound, in data set [4] (plasma, ref Scott, L. J. (69)), the “Expected Fraction Unbound in Plasma” value was 0.01. For the same compound, in data set [5], the “Spheroid MOS” value is above 0.7 and the Spheroid false negative entry is “Yes”. Also, in data set [6], the “Chip MOS both donors” value is on record as 0.001; the “Chip MOS donor 1” value was 0.001; the “Chip MOS donor 2” value is given as 0.3; the “Liver-Chip toxicity determination, MOS-like figure against threshold value of 50” value (from here on “Liver-Chip toxicity determination”) is “hepatotoxic”.

For `O=c1[nH]c(=O)n([C@@H]2O[C@H](CO)[C@@H](O)[C@@H]2F)cc1I` [FIRU], the “Garside DILI rank” value in data set [1] is 5. The “Immunofluorescent findings, donor one (Supplementary Figure 3)” value (“Immunofluorescent findings, donor one” below) in data set [2] (setting [8]) is “No findings”. In data set [2] (matched pair analysis), the “IF imaging Donor 1” value was “No findings” and the “IF imaging Donor 2” value is on record as “Steatosis”. Also, in data set [3], the “ALT Donor 1” value is given as >300 multiples of the unbound human Cmax and the “ALT Donor 2” value is listed as >300 multiples of the unbound human Cmax. The “Expected Fraction Unbound in Plasma” value in data set [4] (plasma, ref Scott, L. J. (69)) is on record as “*0.36”. Also, the Spheroid false negative result in data set [5] is “No”. In addition, in data set [6], the “Chip MOS both donors” value was above 108, the “Chip MOS donor 1” value is listed as above 108 and the “Chip MOS donor 2” value is above 108.

With `CC(CCc1ccccc1)NCC(O)c1ccc(O)c(C(N)=O)c1` (centres unmarked) [Labetalol], in data set [1], the “Garside DILI rank” value was 1. Moreover, in data set [2] (setting [8]), the “Immunofluorescent findings, donor one” value is “Apoptosis” and the “Immunofluorescent findings, donor two” value was “Apoptosis”. In data set [2] (expanded drug list), the “IF imaging Donor 1” value was “Apoptosis” and the “IF imaging Donor 2” value is “Apoptosis”. In addition, in data set [3] (setting [7]), the “ALT Donor 1” value is given as > 100 unbound human Cmax multiplier. Also, the “ALT Donor 2” value in data set [3] (setting [9]) is listed as 100 unbound human Cmax multiplier. Moreover, in data set [4] (plasma, ref Lau, S.W.J. (65)), the “Expected Fraction Unbound in Plasma” value was 0.5. For the same compound, the Spheroid false negative entry in data set [5] is listed as “Yes”. For the same compound, in data set [6], the “Chip MOS both donors” value is given as 22; the “Chip MOS donor 1” value is listed as 26; the “Chip MOS donor 2” value is listed as 22; the “Liver-Chip toxicity determination” value is given as “hepatotoxic”.

With `Cc1cc2c(cc1CC(=O)c1sccc1S(=O)(=O)Nc1onc(C)c1Cl)OCO2` [Sitaxsentan], in data set [1], the “Garside DILI rank” value is on record as 1. In addition, the “Immunofluorescence staining result in words” value in data set [2] is recorded as “concentration-dependent decrease in TMRM staining”. In data set [2] (setting [8]), the “Immunofluorescent findings, donor one” value is reported as “Mitotoxicity” and the “Immunofluorescent findings, donor two” value was “Mitotoxicity”. Besides, the “Immunofluorescent findings, donor three (Supplementary Figure 3)” value in data set [2] (day 7 post-drug administration, hepatocyte layer, top channel, donor three) was “Mitotoxicity”. Also, in data set [2] (matched pair analysis), the “IF imaging Donor 1” value is on record as “Mitotoxicity” and the “IF imaging Donor 2” value was “Mitotoxicity”. Moreover, in data set [2] (matched pair analysis, donor 3), the “IF imaging Donor 3” value was “Mitotoxicity”. Besides, the “ALT Donor 1” value in data set [3] (lowest concentration causing an increase in ALT protein, donor 1) was 300 multiples of the unbound human Cmax. Moreover, the “ALT Donor 2” value in data set [3] (lowest concentration causing an increase in ALT protein, donor 2) is listed as 300 multiples of the unbound human Cmax. The “ALT Donor 3” value in data set [3] (lowest concentration causing an increase in ALT protein, donor 3) is 100 multiples of the unbound human Cmax. In data set [5], the “Spheroid MOS” value is 8.7 and the Spheroid false negative entry is listed as “No”. In addition, in data set [6], the “Chip MOS both donors” value is reported as 0.04, the “Chip MOS donor 1” value is reported as 0.04 and the “Chip MOS donor 2” value is on record as 1.6.

In the case of `CCOC(=O)CN[C@@H](C(=O)N1CC[C@H]1C(=O)NCc1ccc(/C(N)=N\O)cc1)C1CCCCC1` [Ximelagatran], in data set [2] (setting [8]), the “Immunofluorescent findings, donor one” value is on record as “No findings” and the “Immunofluorescent findings, donor two” value is “No findings”. In data set [2] (expanded drug list), the “IF imaging Donor 1” value is listed as “No findings” and the “IF imaging Donor 2” value is on record as “No findings”. The “ALT Donor 1” value in data set [3] (setting [7]) is recorded as 30 unbound human Cmax multiplier. For the same compound, in data set [3] (setting [9]), the “ALT Donor 2” value is on record as > 300 unbound human Cmax multiplier. Also, the “Expected Fraction Unbound in Plasma” value in data set [4] (human plasma, no reference printed (-)) was 1. In data set [5], the “Spheroid MOS” value was 335 and the Spheroid false negative entry is listed as “Yes”. Also, in data set [6], the “Chip MOS both donors” value is given as 30; the “Chip MOS donor 1” value is reported as 30; the “Chip MOS donor 2” value is 300; the “Liver-Chip toxicity determination” value is listed as “only toxic in one of the donors tested”.
